Experimental data reported in US11613556B2, “Oxysterols and methods of use thereof” (Sage Therapeutics, Inc., priority 2016, dated 2023).
pEC50: −log10 of the molar value. Like-named read-outs stand apart in the source and are kept apart here.

Experiments:
Assay type in all cases: cell-based
[1] = target: GluN1/GluN2A glutamate receptors (human GRIN1/GRIN2A) expressed in HEK293 cells (Homo sapiens (Human), UniProt Q05586+Q12879); assay: Whole-cell patch clamp of mammalian cells (Ionworks Barracuda), positive allosteric modulation, GluN1/GluN2A; details: for Emax: read-out: GluN2A PCA EMax (%)
Chain of GluN1/GluN2A glutamate receptors (human GRIN1/GRIN2A) expressed in HEK293 cells (Q12879 whole entry, looked up, other chains not shown): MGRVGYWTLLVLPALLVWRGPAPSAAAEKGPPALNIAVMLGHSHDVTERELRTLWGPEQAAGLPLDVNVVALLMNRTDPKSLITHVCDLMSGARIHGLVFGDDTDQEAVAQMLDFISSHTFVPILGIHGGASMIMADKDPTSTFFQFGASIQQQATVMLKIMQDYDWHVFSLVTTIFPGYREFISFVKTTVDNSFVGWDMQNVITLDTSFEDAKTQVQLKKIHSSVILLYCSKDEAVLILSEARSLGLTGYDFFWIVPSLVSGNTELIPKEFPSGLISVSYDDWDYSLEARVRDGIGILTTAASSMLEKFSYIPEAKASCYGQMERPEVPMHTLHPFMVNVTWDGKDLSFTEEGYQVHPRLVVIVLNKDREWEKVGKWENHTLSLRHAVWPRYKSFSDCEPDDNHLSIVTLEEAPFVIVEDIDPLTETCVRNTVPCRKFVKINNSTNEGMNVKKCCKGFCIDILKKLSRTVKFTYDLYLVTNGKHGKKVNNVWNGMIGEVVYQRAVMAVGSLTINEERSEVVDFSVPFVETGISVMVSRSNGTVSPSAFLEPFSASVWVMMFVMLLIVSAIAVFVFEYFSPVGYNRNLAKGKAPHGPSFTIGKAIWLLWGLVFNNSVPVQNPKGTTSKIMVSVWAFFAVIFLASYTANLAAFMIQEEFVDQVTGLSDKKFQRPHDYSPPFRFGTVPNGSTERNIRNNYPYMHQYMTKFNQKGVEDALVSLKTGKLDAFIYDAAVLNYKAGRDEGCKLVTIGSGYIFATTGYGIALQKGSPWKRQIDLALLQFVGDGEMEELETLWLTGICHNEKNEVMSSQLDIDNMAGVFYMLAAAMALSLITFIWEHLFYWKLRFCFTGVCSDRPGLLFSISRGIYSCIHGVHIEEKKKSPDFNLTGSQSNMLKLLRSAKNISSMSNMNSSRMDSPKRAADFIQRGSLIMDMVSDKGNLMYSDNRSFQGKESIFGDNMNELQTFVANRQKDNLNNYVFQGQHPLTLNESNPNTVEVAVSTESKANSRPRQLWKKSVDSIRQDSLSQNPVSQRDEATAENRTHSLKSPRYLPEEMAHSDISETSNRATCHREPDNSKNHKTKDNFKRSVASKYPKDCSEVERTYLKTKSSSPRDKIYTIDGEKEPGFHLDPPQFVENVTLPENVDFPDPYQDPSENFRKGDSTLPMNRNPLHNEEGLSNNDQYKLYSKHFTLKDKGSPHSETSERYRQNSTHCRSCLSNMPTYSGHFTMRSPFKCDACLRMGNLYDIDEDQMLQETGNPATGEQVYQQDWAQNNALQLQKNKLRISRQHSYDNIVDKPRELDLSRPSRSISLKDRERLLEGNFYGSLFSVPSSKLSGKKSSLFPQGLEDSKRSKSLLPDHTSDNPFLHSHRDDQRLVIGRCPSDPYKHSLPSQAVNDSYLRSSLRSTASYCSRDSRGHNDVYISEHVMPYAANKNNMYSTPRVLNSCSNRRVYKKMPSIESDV
Method in brief: (§1)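 Ionworks Barracuda perforated-patch recordings, holding −70 mV, −40 mV during application; CsCl/CsF intracellular pH 7.2, HB-PS extracellular pH 7.4 with 5 mM CaCl2. 5 min pre-application of test article alone, then co-application with EC20 L-glutamate plus 30 μM glycine; potentiation read as peak current amplitude.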

[2] = target: GluN2B glutamate receptors expressed in mammalian cells (Homo sapiens (Human), UniProt Q05586+Q13224); assay: Whole-cell patch clamp of mammalian cells (Ionworks Barracuda), positive allosteric modulation, GluN2B; details: for Emax: read-out: GluN2B PCA EMax (%)
Chain of GluN2B glutamate receptors expressed in mammalian cells (Q13224 27-1484, other chains not shown): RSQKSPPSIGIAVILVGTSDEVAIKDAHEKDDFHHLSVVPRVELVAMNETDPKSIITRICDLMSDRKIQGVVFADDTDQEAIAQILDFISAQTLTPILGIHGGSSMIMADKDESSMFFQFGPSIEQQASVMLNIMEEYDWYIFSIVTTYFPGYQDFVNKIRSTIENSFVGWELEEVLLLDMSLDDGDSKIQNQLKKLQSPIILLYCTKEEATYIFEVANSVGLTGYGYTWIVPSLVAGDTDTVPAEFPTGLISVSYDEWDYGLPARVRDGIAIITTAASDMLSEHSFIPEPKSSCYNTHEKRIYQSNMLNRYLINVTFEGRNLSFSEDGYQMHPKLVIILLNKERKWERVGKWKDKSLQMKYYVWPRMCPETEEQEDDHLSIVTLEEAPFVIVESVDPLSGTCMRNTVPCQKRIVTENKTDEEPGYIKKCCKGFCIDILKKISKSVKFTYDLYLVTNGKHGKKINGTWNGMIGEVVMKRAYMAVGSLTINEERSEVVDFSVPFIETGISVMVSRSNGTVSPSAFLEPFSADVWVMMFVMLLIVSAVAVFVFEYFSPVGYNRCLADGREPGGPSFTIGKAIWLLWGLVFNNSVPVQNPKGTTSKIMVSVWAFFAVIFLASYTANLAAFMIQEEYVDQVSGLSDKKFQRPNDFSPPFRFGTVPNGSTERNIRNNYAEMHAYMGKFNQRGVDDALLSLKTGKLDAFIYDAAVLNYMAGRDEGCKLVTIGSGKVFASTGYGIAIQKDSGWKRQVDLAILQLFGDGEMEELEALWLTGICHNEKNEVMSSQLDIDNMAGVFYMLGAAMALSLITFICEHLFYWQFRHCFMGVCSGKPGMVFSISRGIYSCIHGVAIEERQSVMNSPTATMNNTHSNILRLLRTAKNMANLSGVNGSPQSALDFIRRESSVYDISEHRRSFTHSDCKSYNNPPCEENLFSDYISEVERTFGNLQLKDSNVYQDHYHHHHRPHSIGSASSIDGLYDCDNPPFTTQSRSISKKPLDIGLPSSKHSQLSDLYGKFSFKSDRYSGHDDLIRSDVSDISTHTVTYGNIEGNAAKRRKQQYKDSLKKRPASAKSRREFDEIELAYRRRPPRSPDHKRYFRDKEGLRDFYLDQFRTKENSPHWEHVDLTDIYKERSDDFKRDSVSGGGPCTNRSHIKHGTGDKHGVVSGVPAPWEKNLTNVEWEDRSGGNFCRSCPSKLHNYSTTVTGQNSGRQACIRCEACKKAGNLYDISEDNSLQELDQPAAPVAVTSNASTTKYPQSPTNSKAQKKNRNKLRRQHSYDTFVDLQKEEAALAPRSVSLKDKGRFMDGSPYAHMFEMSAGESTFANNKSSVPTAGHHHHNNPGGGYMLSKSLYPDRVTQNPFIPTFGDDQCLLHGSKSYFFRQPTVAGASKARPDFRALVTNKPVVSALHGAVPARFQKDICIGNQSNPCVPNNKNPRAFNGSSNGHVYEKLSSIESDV
Method in brief: as §1

[3] = target: glutamate-activated channels of the GRIN1/2A subtype stably transfected in HEK 293 cells (Homo sapiens (Human), UniProt Q05586+Q12879); assay: Automated patch-clamp system (QPatch HTX), percent potentiation at 1 μM; details: HEK293, 1 μM test compound, 300 μM NMDA with 8 μM glycine, HEK 293 GRIN1/2A, read-out: GluN2A PCA % potentiation at 1 μM
Chain of glutamate-activated channels of the GRIN1/2A subtype stably transfected in HEK 293 cells (Q12879 whole entry, looked up, other chains not shown): as the sequence (Q12879 whole entry, looked up, other chains not shown) above
Method in brief: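 Tetracycline-induced HEK 293 cells stably expressing human GRIN1/2A were whole-cell recorded on QPatch HTX in Mg-free bath solution at pH 7.4. Compound at 1.0 μM (0.1% DMSO) was co-applied with submaximal 300 μM NMDA plus 8 μM glycine, and percent potentiation was recorded.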

[4] = peak current amplitude, co-application with EC20 L-glutamate and 30 μM glycine, HEK293
[5] = peak current amplitude, co-application with EC20 L-glutamate and 30 μM glycine, read-out: GluN2B PCA EC50
[6] = peak current amplitude, co-application with EC20 L-glutamate and 30 μM glycine
[7] = peak current amplitude, co-application with EC20 L-glutamate and 30 μM glycine, HEK293, read-out: GluN2A PCA EC50

| Structure (SMILES) | pEC50 [1] | Emax [1, 4] [%] | pEC50 [2, 5] | Emax [2, 6] [%] | activation at 1 µM [3] [%] | pEC50 [1, 7] | pEC50 [2] | Emax [2] [%] |
| --- | --- | --- | --- | --- | --- | --- | --- | --- |
| CCC[C@H](O)[C@@H](C)[C@H]1CC[C@H]2[C@@H]3CC[C@H]4C[C@](O)(CC)CC[C@]4(C)[C@H]3CC[C@]12C [Compound 38, (3S,5S,8R,9S,10S,13S,14S,17R)-3-ethyl-17-((2S,3S)-3-hydroxyhexan-2-yl)-10,13-dimethylhexadecahydro-1H-cyclopenta[a]phenanthren-3-ol] | < 6.00 | < 100 | < 6.00 | < 100 | -40 to -10 |  |  |  |
| CC[C@]1(O)CC[C@H]2[C@@H](CC[C@@H]3[C@@H]2CC[C@]2(C)[C@@H]([C@H](C)[C@H](O)CCC(C)C)CC[C@@H]32)C1 [Compound 40, (3S,5S,8R,9R,10S,13S,14S,17R)-3-ethyl-17-((2S,3R)-3-hydroxy-6-methylheptan-2-yl)-13-methylhexadecahydro-1H-cyclopenta[a]phenanthren-3-ol] | < 6.00 | < 100 | < 6.00 | 100 to 500 | -10 to 10 |  |  |  |
| CC[C@]1(O)CC[C@@]2(C)C(=CC[C@H]3[C@@H]4CC[C@H]([C@H](C)[C@H](O)CC5CCCC5)[C@@]4(C)CC[C@@H]32)C1 [Compound 46, (3S,8S,9S,10R,13S,14S,17R)-17-((2S,3R)-4-cyclopentyl-3-hydroxybutan-2-yl)-3-ethyl-10,13-dimethyl-2,3,4,7,8,9,10,11,12,13,14,15,16,17-tetradecahydro-1H-cyclopenta[a]phenanthren-3-ol] | < 6.00 | < 100 | < 6.00 | < 100 | -40 to -10 |  |  |  |
| CC[C@]1(O)CC[C@@]2(C)[C@H](CC[C@@H]3[C@@H]2CC[C@]2(C)[C@@H]([C@H](C)[C@@H](O)CC4CCC(C)(C)CC4)CC[C@@H]32)C1 [Compound 59, (3S,5R,8R,9S,10S,13S,14S,17R)-17-((2S,3S)-4-(4,4-dimethylcyclohexyl)-3-hydroxybutan-2-yl)-3-ethyl-10,13-dimethylhexadecahydro-1H-cyclopenta[a]phenanthren-3-ol] |  | < 100 |  |  | < -40 | < 6.00 | < 6.00 | < 100 |
| CC[C@]1(O)CC[C@@]2(C)[C@H](CC[C@@H]3[C@@H]2CC[C@]2(C)[C@@H]([C@H](C)[C@H](O)CC4CCCC4)CC[C@@H]32)C1 [Compound 67, (3S,5R,8R,9S,10S,13S,14S,17R)-17-((2S,3R)-4-cyclopentyl-3-hydroxybutan-2-yl)-3-ethyl-10,13-dimethylhexadecahydro-1H-cyclopenta[a]phenanthren-3-ol] | < 6.00 | < 100 | < 6.00 | < 100 | -10 to 10 |  |  |  |
| CC[C@]1(O)CC[C@@]2(C)C(=CC[C@H]3[C@@H]4CC[C@H]([C@H](C)[C@@H](O)CCC5CC5)[C@@]4(C)CC[C@@H]32)C1 [Compound 69, (3S,8S,9S,10R,13S,14S,17R)-17-((2S,3S)-5-cyclopropyl-3-hydroxypentan-2-yl)-3-ethyl-10,13-dimethyl-2,3,4,7,8,9,10,11,12,13,14,15,16,17-tetradecahydro-1H-cyclopenta[a]phenanthren-3-ol] | < 6.00 | < 100 | < 6.00 | < 100 | -10 to 10 |  |  |  |
| CCC[C@H](O)[C@@H](C)[C@H]1CC[C@H]2[C@@H]3CC=C4C[C@](O)(CC)CC[C@]4(C)[C@H]3CC[C@]12C [Compound 72, (3S,8S,9S,10R,13S,14S,17R)-3-ethyl-17-((2S,3S)-3-hydroxyhexan-2-yl)-10,13-dimethyl-2,3,4,7,8,9,10,11,12,13,14,15,16,17-tetradecahydro-1H-cyclopenta[a]phenanthren-3-ol] | < 6.00 | < 100 | < 6.00 | < 100 | -40 to -10 |  |  |  |
| CC[C@]1(O)CC[C@@]2(C)[C@@H](CC[C@@H]3[C@@H]2CC[C@]2(C)[C@@H]([C@H](C)[C@H](O)CC4CCCC4)CC[C@@H]32)C1 [Compound 84, (3S,5S,8R,9S,10S,13S,14S,17R)-17-((2S,3R)-4-cyclopentyl-3-hydroxybutan-2-yl)-3-ethyl-10,13-dimethylhexadecahydro-1H-cyclopenta[a]phenanthren-3-ol] | < 6.00 | < 100 | < 6.00 | < 100 | -10 to 10 |  |  |  |
| CC[C@]1(O)CC[C@@]2(C)[C@H](CC[C@@H]3[C@@H]2CC[C@]2(C)[C@@H]([C@H](C)[C@H](O)CC4CCC(C)(C)CC4)CC[C@@H]32)C1 [Compound 87, (3S,5R,8R,9S,10S,13S,14S,17R)-17-((2S,3R)-4-(4,4-dimethylcyclohexyl)-3-hydroxybutan-2-yl)-3-ethyl-10,13-dimethylhexadecahydro-1H-cyclopenta[a]phenanthren-3-ol] |  | < 100 |  |  | -10 to 10 | < 6.00 | < 6.00 | < 100 |
| CC[C@]1(O)CC[C@@]2(C)[C@H](CC[C@@H]3[C@@H]2CC[C@]2(C)[C@@H]([C@H](C)[C@@H](O)CC4CCCC4)CC[C@@H]32)C1 [Compound 94, (3S,5R,8R,9S,10S,13S,14S,17R)-17-((2S,3S)-4-cyclopentyl-3-hydroxybutan-2-yl)-3-ethyl-10,13-dimethylhexadecahydro-1H-cyclopenta[a]phenanthren-3-ol] | < 6.00 | < 100 | < 6.00 | < 100 | -40 to -10 |  |  |  |
| CC[C@]1(O)CC[C@@]2(C)[C@H](CC[C@@H]3[C@@H]2CC[C@]2(C)[C@@H]([C@H](C)[C@H](O)CCC(C)C)CC[C@@H]32)C1 [Compound 96, (3S,5R,8R,9S,10S,13S,14S,17R)-3-ethyl-17-((2S,3R)-3-hydroxy-6-methylheptan-2-yl)-10,13-dimethylhexadecahydro-1H-cyclopenta[a]phenanthren-3-ol] |  | < 100 |  |  | -10 to 10 | 6.00 to 7.00 | < 6.00 | < 100 |
| CC[C@]1(O)CC[C@@]2(C)[C@@H](CC[C@@H]3[C@@H]2CC[C@]2(C)[C@@H]([C@H](C)[C@@H](O)CC4CCCC4)CC[C@@H]32)C1 [Compound 98, (3S,5S,8R,9S,10S,13S,14S,17R)-17-((2S,3S)-4-cyclopentyl-3-hydroxybutan-2-yl)-3-ethyl-10,13-dimethylhexadecahydro-1H-cyclopenta[a]phenanthren-3-ol] | < 6.00 | < 100 | < 6.00 | < 100 | -40 to -10 |  |  |  |
| CC[C@]1(O)CC[C@@]2(C)C(=CC[C@H]3[C@@H]4CC[C@H]([C@H](C)[C@@H](O)CC5CCCC5)[C@@]4(C)CC[C@@H]32)C1 [Compound 100, (3S,8S,9S,10R,13S,14S,17R)-17-((2S,3S)-4-cyclopentyl-3-hydroxybutan-2-yl)-3-ethyl-10,13-dimethyl-2,3,4,7,8,9,10,11,12,13,14,15,16,17-tetradecahydro-1H-cyclopenta[a]phenanthren-3-ol] | < 6.00 | < 100 | < 6.00 | < 100 | -40 to -10 |  |  |  |
